Assays:
Type in all cases: biochemical
[1] = target: T1, PARP-1 [poly(ADP-ribose) polymerase 1] (Homo sapiens, UniProt P09874); assay: […]NAD+ automodification assay with purified PARP-1
[2] = target: T1, PARP-1 [poly(ADP-ribose) polymerase 1]; assay: Michaelis–Menten kinetics of ADP-ribose incorporation
[3] = target: T1, PARP-1 [poly(ADP-ribose) polymerase 1]; assay: […]NAD+ automodification assay, single concentration of […]
[4] = target: T1, PARP-1 [poly(ADP-ribose) polymerase 1]; assay: […]NAD+ automodification assay, % inhibition at […]; conditions: read-out: % reduction at 1 mM

T1 sequence (P09874 2-1014): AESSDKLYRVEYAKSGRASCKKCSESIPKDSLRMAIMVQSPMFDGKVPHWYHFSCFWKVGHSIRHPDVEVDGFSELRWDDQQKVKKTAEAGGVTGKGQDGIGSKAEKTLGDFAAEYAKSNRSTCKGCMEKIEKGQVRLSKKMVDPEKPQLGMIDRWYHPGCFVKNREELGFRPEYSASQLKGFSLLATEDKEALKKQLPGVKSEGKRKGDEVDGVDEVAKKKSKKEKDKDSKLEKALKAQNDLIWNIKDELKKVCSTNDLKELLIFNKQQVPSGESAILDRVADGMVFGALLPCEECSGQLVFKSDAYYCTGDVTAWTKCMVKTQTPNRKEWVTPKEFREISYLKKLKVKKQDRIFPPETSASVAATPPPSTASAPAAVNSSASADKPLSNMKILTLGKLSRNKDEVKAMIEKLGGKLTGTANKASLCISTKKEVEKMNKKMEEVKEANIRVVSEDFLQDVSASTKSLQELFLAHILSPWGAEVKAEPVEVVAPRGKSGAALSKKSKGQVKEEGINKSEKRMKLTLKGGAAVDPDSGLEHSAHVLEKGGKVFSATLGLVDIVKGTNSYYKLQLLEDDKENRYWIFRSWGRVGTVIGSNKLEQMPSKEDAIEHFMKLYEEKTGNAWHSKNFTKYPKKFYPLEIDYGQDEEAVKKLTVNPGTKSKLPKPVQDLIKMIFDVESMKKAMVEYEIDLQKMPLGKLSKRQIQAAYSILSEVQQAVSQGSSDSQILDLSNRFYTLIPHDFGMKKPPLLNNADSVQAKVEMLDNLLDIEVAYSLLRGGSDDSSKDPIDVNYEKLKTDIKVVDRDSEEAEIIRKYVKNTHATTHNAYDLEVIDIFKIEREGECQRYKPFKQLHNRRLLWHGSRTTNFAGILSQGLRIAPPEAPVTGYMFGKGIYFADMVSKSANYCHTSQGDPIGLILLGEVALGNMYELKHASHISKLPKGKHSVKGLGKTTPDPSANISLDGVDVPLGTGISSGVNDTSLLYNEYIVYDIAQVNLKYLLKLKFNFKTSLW

`Nc1ncnc2c1ncn2[C@@H]1O[C@H](COP(=O)(O)O)[C@@H](OP(=O)(O)O)[C@H]1O` [pAp] showed a Ki [1] of 500 to 1000 nM.

`NC(=O)c1ccc[n+]([C@@H]2O[C@H](COP(=O)([O-])OP(=O)(O)OC[C@H]3O[C@@H](n4cnc5c(N)ncnc54)[C@H](O)[C@@H]3O)[C@@H](O)[C@H]2O)c1` [NAD^+] was tested, and the Km [2] was 200 to 250 µM.

In the case of `Nc1ncnc2c1ncn2[C@@H]1O[C@H](COP(=O)(O)OP(=O)(O)OC[C@H]2OC(O)[C@H](O)[C@@H]2O)[C@@H](O)[C@H]1O` (stereo partly shown) [ADP-ribose], the “[32P]NAD+ automodification assay, single concentration of 50 μM” value [3] is reported as “With the exception of ADP-ribose, other adenine derivatives only inhibited PARP-1 to a limited extent”.

`Nc1ncnc2c1ncn2[C@@H]1O[C@H](COP(=O)(O)OP(=O)(O)OP(=O)(O)O)[C@@H](O)[C@H]1O` [ATP] was tested, and the inhibition at 1000 µM [4] was ~25%.
